A short description of data set [1]: Dog 28-day repeat dose PO study. The data set is classed as in vivo. The protocol:
Beagle dogs (4/sex/group plus 2/sex/group for control and high dose animals for recovery) were administered daily doses of 0, 100, 250 or 400 mg/kg/day of Compound 1 in 0.5% HPMC. […] Dogs in Group 1 (Vehicle Control) were bled once at approximately 2-4 hours post-dose on those days.

A short description of data set [2]: Cytotoxicity by lactate dehydrogenase (LDH) release. The conditions noted are these: human, HEK293 cells; read-out: percent cytotoxicity (LDH release). Format: cell-based. Background: LDH in the medium is a marker of cell lysis.

Structures are written as SMILES. Structures can show the parent of a compound that is named as a salt. Where two headings read alike, the source gives them in different places.

By Cmax is commonly meant the peak of the concentration-time curve. For orientation: Tmax means the time from dosing to the highest level. A word on the half-life: it is the time needed for the level to fall by half in the phase considered. A low value points to rapid decline. In the case of `CC1(C)SC(Nc2ccccc2O)=N[C@@H]1C(=O)O` [Compound 1, (R)-2-(2-hydroxyphenylamino)-5,5-dimethyl-4,5-dihydrothiazole-4-carboxylic acid mono-hydrochloride], the Cmax entry in data set [1] (28-day pivotal dog study, at some doses) was “over 100 μg/mL”; in data set [1] (female, beagle, dog, in vivo, po, 100 mg/kg, Day 1, 100 mg/kg PO, F, read-out: Cmax), 69.3 µg/mL; in data set [1] (female, beagle, dog, in vivo, po, 100 mg/kg, Day 15, 100 mg/kg PO, F, read-out: Cmax), 53 µg/mL; in data set [1] (female, beagle, dog, in vivo, po, 100 mg/kg, Day 28, 100 mg/kg PO, F, read-out: Cmax), 60.8 µg/mL; in data set [1] (female, beagle, dog, in vivo, po, 250 mg/kg, Day 1, 250 mg/kg PO, F, read-out: Cmax) it was 101 µg/mL; in data set [1] (female, beagle, dog, in vivo, po, 250 mg/kg, Day 15, 250 mg/kg PO, F, read-out: Cmax), 94.6 µg/mL. Besides, the Cmax in data set [1] (female, beagle, dog, in vivo, po, 250 mg/kg, Day 28, 250 mg/kg PO, F, read-out: Cmax) was found to be 89.5 µg/mL; in data set [1] (female, beagle, dog, in vivo, po, 400 mg/kg, Day 1, 400 mg/kg PO, F, read-out: Cmax) it was 129 µg/mL; in data set [1] (female, beagle, dog, in vivo, po, 400 mg/kg, Day 15, 400 mg/kg PO, F, read-out: Cmax) it was 123 µg/mL; in data set [1] (female, beagle, dog, in vivo, po, 400 mg/kg, Day 28, 400 mg/kg PO, F, read-out: Cmax), 131 µg/mL; in data set [1] (male, beagle, dog, in vivo, po, 100 mg/kg, Day 1, 100 mg/kg PO, M, read-out: Cmax) it was 49.9 µg/mL; in data set [1] (male, beagle, dog, in vivo, po, 100 mg/kg, Day 15, 100 mg/kg PO, M, read-out: Cmax) it was 50.4 µg/mL. In addition, the Cmax in data set [1] (male, beagle, dog, in vivo, po, 100 mg/kg, Day 28, 100 mg/kg PO, M, read-out: Cmax) stood at 45 µg/mL; in data set [1] (male, beagle, dog, in vivo, po, 250 mg/kg, Day 1, 250 mg/kg PO, M, read-out: Cmax), 104 µg/mL; in data set [1] (male, beagle, dog, in vivo, po, 250 mg/kg, Day 15, 250 mg/kg PO, M, read-out: Cmax) it was 88 µg/mL; in data set [1] (male, beagle, dog, in vivo, po, 250 mg/kg, Day 28, 250 mg/kg PO, M, read-out: Cmax) it was 105 µg/mL; in data set [1] (male, beagle, dog, in vivo, po, 400 mg/kg, Day 1, 400 mg/kg PO, M, read-out: Cmax), 128 µg/mL; in data set [1] (male, beagle, dog, in vivo, po, 400 mg/kg, Day 15, 400 mg/kg PO, M, read-out: Cmax), 112 µg/mL. Moreover, the Cmax in data set [1] (male, beagle, dog, in vivo, po, 400 mg/kg, Day 28, 400 mg/kg PO, M, read-out: Cmax) is 125 µg/mL. In addition, the Tmax in data set [1] (28-day study, dog) was not above 1 h; in data set [1] (both sexes, beagle, dog, in vivo, po, 100 and 250 mg/kg treatment groups, read-out: median tmax), 1 h. Also, the half-life in data set [1] (both sexes, beagle, dog, in vivo, po, t1/2) is approximately 3.5 h. Also, in data set [1] (both, beagle, dog, in vivo, po), the t1/2 is 3.5 h. In data set [2], the cytotoxicity is less than 25%.

These data come from US20200246316A1, “METHODS OF TREATING POST-SURGICAL PAIN WITH A THIAZOLINE ANTI-HYPERALGESIC AGENT” (CERSCI THERAPEUTICS, INC., priority 2019, published 2020).
